{
  "source": "patent US12383539B2",
  "about": "(Cavion, Inc., priority 2018, dated 2025)",
  "key": {"[1]": {"assay": "Clinical PK crossover study of IR, MR1 and MR2 capsules, single 8 mg dose", "format": "in vivo, human", "source_text": "Subjects will be screened for study eligibility within 28 days before administration of the first dose of study drug. Subjects who meet the study eligibility criteria will be admitted to the clinical research unit in the afternoon of the day before administration of the first dose of study drug (Period 1/Day −1).\nTreatments A, B, and C will be separated by a minimum 7-day washout period. […] Administration of Treatment D may be separated from administration of Treatments A, B, and C by approximately 4 weeks to allow for analysis of the bioanalytical samples from the first 3 treatments.\nA single dose, crossover clinical trial was conducted in 15 subjects ranging in age from 35-75 years."}, "[2]": {"format": "in vivo", "settings": "rat NOAEL 300 mg/kg, human 10 mg BID"}, "[3]": {"format": "in vivo", "settings": "dog NOAEL 30 mg/kg, human 10 mg BID"}, "[4]": {"settings": "following a single 8 mg dose of IR CX-8998"}, "[5]": {"settings": "following a single 8 mg dose of MR1 CX-8998"}, "[6]": {"settings": "following a single 8 mg dose of MR2 CX-8998"}},
  "note": "“And” between values parts separate entries of the source, which are not always exact repeats. Equal entries are not always repeated. Where two headings read alike, the source gives them in different places.",
  "data": [
    {"smiles": "C=C(C)c1ccc(CC(=O)N[C@H](C)c2ccc(OCC(F)(F)F)cn2)cc1", "note": "[M01]", "values": [
      {"measurement": "AUC72hr Ratio (metabolite to CX-8998)", "setting": "[1]; [4]", "result": 0.92},
      {"measurement": "Cmax Ratio (metabolite to CX-8998)", "setting": "[1]; [4]", "result": 0.14},
      {"measurement": "AUC72hr Ratio (metabolite to CX-8998)", "setting": "[1]; [5]", "result": 0.95},
      {"measurement": "Cmax Ratio (metabolite to CX-8998)", "setting": "[1]; [5]", "result": 0.27},
      {"measurement": "AUC72hr Ratio (metabolite to CX-8998)", "setting": "[1]; [6]", "result": 0.90},
      {"measurement": "Cmax Ratio (metabolite to CX-8998)", "setting": "[1]; [6]", "result": 0.35},
      {"measurement": "total safety margin, AUC24hr", "setting": "[2]; Day 90, female", "result": 13, "unit": "fold"},
      {"measurement": "total safety margin, Css (animal Cmax / human estimated Css at steady state)", "setting": "[2]; Day 90, female", "result": 21, "unit": "fold"},
      {"measurement": "total safety margin, AUC24hr", "setting": "[2]; Day 90, male", "result": 6.8, "unit": "fold"},
      {"measurement": "total safety margin, Css (animal Cmax / human estimated Css at steady state)", "setting": "[2]; Day 90, male", "result": 13, "unit": "fold"},
      {"measurement": "total safety margin, AUC24hr", "setting": "[3]; Day 90, female", "result": 5.6, "unit": "fold"},
      {"measurement": "total safety margin, Css (animal Cmax / human estimated Css at steady state)", "setting": "[3]; Day 90, female", "result": "8 fold and 8.0 fold"},
      {"measurement": "total safety margin, AUC24hr", "setting": "[3]; Day 90, male", "result": 6.5, "unit": "fold"},
      {"measurement": "total safety margin, Css (animal Cmax / human estimated Css at steady state)", "setting": "[3]; Day 90, male", "result": 10, "unit": "fold"}
    ]}
  ]
}
